Reference: patent US20130310256A1, “HERBICIDAL COMPOSITIONS COMPRISING 4-AMINO-3-CHLORO-5-FLUORO-6-(4-CHLORO-2-FLUORO-3-METHOXYPHENYL) PYRIDINE-2-CARBOXYLIC ACID OR A DERIVATIVE THEREOF AND VLCFA AND LIPID SYNTHESIS INHIBITING HERBICIDES” (DOW AGROSCIENCES LLC, priority 2008, published 2013)

Tests used:
CYPES = assay: Example I: postemergence foliar-applied weed control, greenhouse; format: in vivo, Cyperus esculentus L. (yellow nutsedge)
CHEAL = assay: Example III: post-emergence foliar-applied weed control in cereal crops, greenhouse; format: in vivo, Chenopodium album L.; conditions: 21 DAA
Experimental: Seeds of the desired test plant species were planted in Sun Gro MetroMix® 306 planting mixture, which typically has a pH of 6.0 to 6.8 and an organic matter content of about 30 percent, in plastic pots with a surface area of 103.2 square centimeters (cm^2). When required to ensure good germination and healthy plants, a fungicide treatment and/or other chemical or physical treatment was applied. The plants were grown for 7-36 days in a greenhouse with an approximate 14 hour photoperiod which was maintained at about 18° C. during the day and 17° C. during the night. Nutrients and water were added on a regular basis and supplemental lighting was provided with overhead metal halide 1000-Watt lamps as necessary. The plants were employed for testing when they reached the second or third true leaf stage.
Treatments consisted of the benzyl ester of 4-amino-3-chloro-5-fluoro-6-(4-chloro-2-fluoro-3-methoxy-phenyl)pyridine-2-carboxylic acid (Compound A), formulated as an SC (suspension concentrate), and a second cereal herbicide alone and in combination.
Measured aliquots of the benzyl ester of 4-amino-3-chloro-5-fluoro-6-(4-chloro-2-fluoro-3-methoxy-phenyl)pyridine-2-carboxylic acid (Compound A) were placed in 25 milliliter (mL) glass vials and diluted in a volume of 1.25% (v/v) Agri-dex crop oil concentrated to obtain stock solutions. Compound requirements are based upon a 12 mL application volume at a rate of 187 liters per hectare (L/ha). Spray solutions of the second cereal herbicide and experimental compound mixtures were prepared by adding the stock solutions to the appropriate amount of dilution solution to form 12 mL spray solution with active ingredients in two- and three-way combinations. Formulated compounds were applied to the plant material with an overhead Mandel track sprayer equipped with an 8002E nozzle calibrated to deliver 187 L/ha over an application area of 0.503 square meters (m^2) at a spray height of 18 inches (46 cm) above average plant canopy. Control plants were sprayed in the same manner with the solvent blank.
The treated plants and control plants were placed in a greenhouse as described above and watered by sub-irrigation to prevent wash-off of the test compounds. After 20-22 days, the condition of the test plants as compared with that of the control plants was determined visually and scored on a scale of 0 to 100 percent where 0 corresponds to no injury and 100 corresponds to complete kill.
Colby's equation was used to determine the herbicidal effects expected from the mixtures (Colby, S. R. 1967. Calculation of the synergistic and antagonistic response of herbicide combinations. Weeds 15:20-22.).

IPOHE = assay: Example IV: pre-emergence soil-applied weed control, greenhouse; format: in vivo, Ipomoea hederacea Jacq. (ivyleaf morningglory)
Text: Seeds or nutlets of the desired test plant species were planted in a soil matrix prepared by mixing a loam soil (32 percent silt, 23 percent clay, and 45 percent sand, with a pH of about 6.5 and an organic matter content of about 1.9 percent) and calcareous grit in an 80 to 20 ratio. The soil matrix was contained in plastic pots with a volume of 1 quart and a surface area of 83.6 square centimeters (cm^2).
Treatments consisted of the benzyl ester of 4-amino-3-chloro-5-fluoro-6-(4-chloro-2-fluoro-3-methoxy-phenyl)pyridine-2-carboxylic acid (compound A) formulated as an SC (suspension concentrate) and various herbicidal components alone and in combination. Forms of compound A were applied on an acid equivalent basis.
Other herbicidal components were applied on an active ingredient basis and included very long chain fatty acid (VLCFA) synthesis-inhibiting and fatty acid/lipid synthesis-inhibiting herbicides alachlor (technical grade material), dimethenamid-P formulated as Outlook®, and S-metolachlor formulated as Dual® II Magnum.
Treatment requirements were calculated based upon the rates being tested, the concentration of active ingredient or acid equivalent in the formulation, and a 12 mL application volume at a rate of 187 L/ha.
For treatments comprised of formulated compounds, measured amounts of compounds were placed individually in 25 mL glass vials and diluted in a volume of 1.25% (v/v) Agri-Dex® crop oil concentrate (COC) to obtain 12× stock solutions. […] Application solutions were prepared by adding an appropriate amount of each stock solution (e.g., 1 mL) and diluted to the appropriate final concentrations with the addition of 10 mL of an aqueous mixture of 1.25% (v/v) COC so that the final spray solutions contained 1.25% (v/v) COC.
For treatments comprised of technical compounds, weighed amounts can be placed individually in 25 mL glass vials and dissolved in a volume of 97:3 (v/v) acetone/DMSO to obtain 12× stock solutions. […] Application solutions can be prepared by adding an appropriate amount of each stock solution (e.g., 1 mL) and diluted to the appropriate final concentrations with the addition of 10 mL of an aqueous mixture of 1.5% (v/v) COC so that the final spray solutions contain 1.25% (v/v) COC. When technical materials are used, the concentrated stock solutions can be added to the spray solutions so that the final acetone and DMSO concentrations of the application solutions are 16.2% and 0.5%, respectively.
For treatments comprised of formulated and technical compounds, weighed amounts of the technical materials were placed individually in 25 mL glass vials and dissolved in a volume of 97:3 (v/v) acetone/DMSO to obtain 12× stock solutions, and measured amounts of the formulated compounds were placed individually in 25 mL glass vials and diluted in a volume of 1.5% (v/v) COC or water to obtain 12× stock solutions. […] Application solutions were prepared by adding an appropriate amount of each stock solution (e.g., 1 mL) and diluted to the appropriate final concentrations with the addition of an appropriate amount of an aqueous mixture of 1.5% (v/v) COC so that the final spray solutions contained 1.25% (v/v) COC. As required, additional water and/or 97:3 (v/v) acetone/DMSO was added to individual application solutions so that the final acetone and DMSO concentrations of the application solutions being compared were 8.1% and 0.25%, respectively.
All stock solutions and applications solutions were visually inspected for compound compatibility prior to application. Spray solutions were applied to the soil with an overhead Mandel track sprayer equipped with a 8002E nozzles calibrated to deliver 187 L/ha over an application area of 0.503 m^2 at a spray height of 18 inches (46 cm) above average pot height. Control pots were sprayed in the same manner with the solvent blank.
The treated and control pots were placed in a greenhouse and top watered as needed. […]

## COc1c(Cl)ccc(-c2nc(C(=O)OCc3ccccc3)c(Cl)c(N)c2F)c1F [Compound A Benzyl Ester, benzyl ester of 4-amino-3-chloro-5-fluoro-6-(4-chloro-2-fluoro-3-methoxy-phenyl)pyridine-2-carboxylic acid]
CYPES; 8 gae/ha
  Visual Weed Control (%) - 20 DAA CYPES Obs: 0%
  Visual Weed Control (%) - 21 DAA CYPES Obs: 85%
CYPES; 16 gae/ha
  Visual Weed Control (%) - 20 DAA CYPES Obs: 75%
CHEAL; 2.5 gai/ha
  Visual Weed Control CHEAL Obs: 50%
CHEAL; 5 gai/ha
  Visual Weed Control CHEAL Obs: 58%
IPOHE; 16 gae/ha, 28 DAA
  Visual Weed Control IPOHE Obs: 13%
IPOHE; 32 gae/ha, 27 DAA
  Visual Weed Control IPOHE Obs: 28%
IPOHE; 32 gae/ha, 28 DAA
  Visual Weed Control IPOHE Obs: 23%
